The text below walks through data of patent USRE30633E, “3-Lower alkylcarbamylsulfonamido-4-phenylaminopyridines, n-oxides, derivatives thereof and pharmaceutical compositions containing same” (A. Christiaens Societe Anonyme, priority 1974, dated 1981).

One experiment relates to paw of rats. In words: Pharmacological test for anti-inflammatory properties (carrageenan rat paw swelling). In kind it is in vivo. The conditions noted are these: oral 1 hour before carrageenan (0.05 ml of 1%), swelling 4 hours after injection by plethysmography, dose not given. Here is the method:
1. Pharmacological test for anti-inflammatory properties.
The compounds to be tested are given as freshly prepared solutions or suspensions by oral route 1 hour before injecting the paw of rats with carrageenan which is a known inflammatory agent.
The inflammatory agent (carrageenan) either in solution or suspension is then injected into the plantar tissue of the right hind paw of each rat, the left paw remaining untreated and serving as control. Each animal receives, for example, 0.05 ml of an aqueous solution containing 1% by weight of carrageenan and 0.9% of sodium chloride.
4 hours after the injection of the inflammatory agent, the importance of swelling is determined by plethysmography and is expressed as a percent of the volume of the control paw.
The anti-inflammatory effect expressed as a percentage of inhibition is obtained by comparison between rats treated with the anti-inflammatory compound and a control group of rats.

In another experiment the test system is rats. Put plainly: Pharmacological test for diuretic properties (urine volume). The conditions noted are these: 50 mg/kg gastric gavage, 25 ml/kg saline s.c., urine collected 4 hours, ml/kg of body weight. The experiment is classed as in vivo. Here is the method:
2. Pharmacological tests for diuretic properties Lots of 3 rats weighting 250-300 g have been constituted at random, each of them being submitted to the same treatment. The compound to be tested was administered by .[.gastric gavage at a dose of 50 ml/kg as a solution or a.]. .Iadd.gastric gavage at a dose of 50 mg/kg as a solution or a .[…].suspension in water containing 0.45% of methylcellulose (which is an inert mucilaginous substance). Control animals received only distilled water as a placebo. At the same time, all the animals received 25 ml/kg of physiological saline by subcutaneous injection. The rats were then placed in metabolic cages, each cage containing 3 animals receiving the same treatment. The urines have been collected during 4 hours. […] The diuresis is expressed in ml/kg of body weight.

Take “3-isopropylcarbamylsulfonamido-4-isopropylaminopyridine [JDL 363]”: the “% inhibition of acute oedema” value with paw of rats came to 63.2%. In the experiment with rats, this compound came in with a Diuresis of 40.1 mL/kg. In the same order, the values of `O=C(NS(=O)(=O)c1cnccc1Nc1cccc(C(F)(F)F)c1)c1ccccc1` [C 2129, 3-benzoylsulfonamido-4-(3'-trifluoromethyl)-phenylaminopyridine] are 23.2% and 30.3 mL/kg. The matching figures for `NS(=O)(=O)c1cnccc1NCc1ccco1` [JDL 181, 3-sulfonamido-4-methylfurylamino-pyridine]: 21.6% and 14.8 mL/kg. In the same order, the values of `CCCCNC(=O)NS(=O)(=O)c1cnccc1Nc1cccc(Cl)c1` [JDL 344, 3-butylcarbamylsulfonamido-4-(3'-chloro)-phenylaminopyridine] are 82.4% and 66.9 mL/kg. Regarding `CCCNC(=O)NS(=O)(=O)c1cnccc1Nc1cccc(C(F)(F)F)c1` [JDL 355, 3-propylcarbamylsulfonamido-4-(3'-trifluoromethyl)phenylaminopyridine], the “% inhibition of acute oedema” value in the experiment on paw of rats was found to be 48.8%. The Diuresis with rats worked out at 57.0 mL/kg.

Consider `CCCCNC(=O)NS(=O)(=O)c1cnccc1Nc1cccc(C(F)(F)F)c1` [JDL 356, 3-butylcarbamylsulfonamido-4-(3'-trifluoromethyl)-phenylaminopyridine], for which, in the experiment on paw of rats, the “% inhibition of acute oedema” value amounted to 80.8%. Moreover, the Diuresis with rats turned out to be 54.7 mL/kg. In the same order, the values of `O=C(Nc1ccc(Cl)cc1)NS(=O)(=O)c1cnccc1Nc1cccc(C(F)(F)F)c1` [JDL 357, 3-parachlorophenylcarbamylsulfonamido-4-(3'-trifluoromethyl)-phenylaminopyridine] are 52.0% and 11.2 mL/kg.

In the case of `CCC(=O)NS(=O)(=O)c1cnccc1N(C)c1ccccc1` [JDL 358, 3-propionylsulfonamido-4-(N-methylanilino)-pyridine], the “% inhibition of acute oedema” value in the experiment with paw of rats came out at 57.3%. In addition, in the experiment with rats, the Diuresis was found to be 17.9 mL/kg.

Regarding `NS(=O)(=O)c1cnccc1Oc1cccc(Cl)c1` [JDL 360, 3-sulfonamido-4-(3'-chloro)-phenoxypyridine], the “% inhibition of acute oedema” value in the experiment with paw of rats is given as 33.6%. Besides, in the experiment with rats, the Diuresis was found to be 5.2 mL/kg. The matching figures for `NS(=O)(=O)c1cnccc1Sc1cccc(Cl)c1` [JDL 361, 3-sulfonamido-4-(3'-chloro)-thiophenoxypyridine]: 56.8% and 9.6 mL/kg. The matching figures for `CC(=O)NS(=O)(=O)c1cnccc1Sc1cccc(Cl)c1` [JDL 362, 3-acetylsulfonamido-4-(3-chloro)-thiophenoxy-pyridine]: 37.6% and 8.1 mL/kg. In the same order, the values of `O=C(NC1CCCCC1)NS(=O)(=O)c1cnccc1Nc1cccc(C(F)(F)F)c1` [JDL 364, 3-cyclohexylcarbamylsulfonamido-4-(3'-trifluoromethyl)-phenylaminopyridine] are 58.4% and 37.7 mL/kg.

On to `CCCNC(=O)NS(=O)(=O)c1cnccc1Oc1cccc(Cl)c1` [JDL 365, 3-propylcarbamylsulfonamido-4-(3'-chloro)-phenoxypyridine], for which the “% inhibition of acute oedema” value in the experiment on paw of rats is 43.2%. The compound further displayed a Diuresis with rats of 8.7 mL/kg.

In the case of `CCCCNC(=O)NS(=O)(=O)c1cnccc1Sc1cccc(Cl)c1` [JDL 366, 3-butylcarbamylsulfonamido-4-(3'-chloro)-thiophenoxypyridine], the “% inhibition of acute oedema” value in the experiment on paw of rats is given as 56.0%. The Diuresis with rats is 11.1 mL/kg. The matching figures for `CC(C)(C)NC(=O)NS(=O)(=O)c1cnccc1Nc1cccc(C(F)(F)F)c1` [JDL 367, 3-tertbutylcarbamylsulfonamido-4-(3'-trifluoromethyl)-phenylaminopyridine]: 80.0% and 11.1 mL/kg. In the case of `O=C(Nc1ccccc1)NS(=O)(=O)c1cnccc1Nc1cccc(C(F)(F)F)c1` [JDL 368, 3-phenylcarbamylsulfonamido-4-(3'-trifluoromethyl)phenylaminopyridine], the “% inhibition of acute oedema” value in the experiment on paw of rats is on record as 57.0%. Also, the Diuresis in the experiment with rats turned out to be 6.1 mL/kg. The matching figures for `CCCNC(=O)NS(=O)(=O)c1cnccc1Nc1cccc(Cl)c1` [JDL 375, 3-propylcarbamylsulfonamido-4-(3'-chloro)-phenylaminopyridine]: 46.4% and 80.5 mL/kg.

Consider `CNC(=O)NS(=O)(=O)c1cnccc1Nc1cccc(C(F)(F)F)c1` [JDL 378, 3-methylcarbamylsulfonamido-4-(3'-trifluoromethyl)-phenylaminopyridine], for which, in the experiment with paw of rats, the “% inhibition of acute oedema” value came to 74.4%. The compound further gave a Diuresis with rats of 84.0 mL/kg.

Turning to `CNC(=O)NS(=O)(=O)c1cnccc1Nc1cccc(Cl)c1` [JDL 379, 3-methylcarbamylsulfonamido-4-(3'-chloro)-phenylaminopyridine], the “% inhibition of acute oedema” value in the experiment with paw of rats is listed as 63.2%. Also, in the experiment with rats, the Diuresis is 76.5 mL/kg. In the same order, the values of `CCCNC(=O)NS(=O)(=O)c1cnccc1N(C)c1ccccc1` [JDL 383, 3-pripylcarbamylsulfonamido-4-N-methyl-anilinopyridine] are 55.2% and 57.8 mL/kg. Regarding `CCCNC(=O)NS(=O)(=O)c1cnccc1Sc1cccc(Cl)c1` [JDL 384, 3-propylcarbamylsulfonamido-4-(3'-chloro)-thiophenoxypyridine], the “% inhibition of acute oedema” value in the experiment on paw of rats was 66.4%. This compound had a Diuresis in the experiment on rats of 12.8 mL/kg. For the compound `CC(C)(C)NC(=O)NS(=O)(=O)c1cnccc1Sc1cccc(Cl)c1` [JDL 385, 3-tertiobutylcarbamylsulfonamido-4-(3'-chloro)-thiophenoxypyridine], the “% inhibition of acute oedema” value with paw of rats is listed as 46.6%. The Diuresis with rats was determined as 17.6 mL/kg. The matching figures for `CCNC(=O)NS(=O)(=O)c1cnccc1Nc1cccc(C(F)(F)F)c1` [JDL 386, 3-ethylcarbamylsulfonamido-4-(3'-trifluoromethyl)-phenylaminopyridline]: 80.8% and 80.5 mL/kg. In the same order, the values of `CCNC(=O)NS(=O)(=O)c1cnccc1Nc1cccc(Cl)c1` [JDL 387] are 76.8% and 80.9 mL/kg. Take `CC(C)(C)NC(=O)NS(=O)(=O)c1cnccc1Nc1cccc(Cl)c1` [JDL 388, 3-tertiobutylcarbamylsulfonamido-4-(3'-chloro)-phenylaminopyridine]: the “% inhibition of acute oedema” value in the experiment on paw of rats came out at 66.4%. Also, the Diuresis with rats is 37.0 mL/kg. In the same order, the values of `O=C(NC1CCCCC1)NS(=O)(=O)c1cnccc1Nc1cccc(Cl)c1` [JDL 389, 3-cyclohexylcarbamylsulfonamido-4-(3'-chloro)-phenylaminopyridine] are 64.0% and 73.3 mL/kg. The matching figures for `O=C(Nc1ccccc1)NS(=O)(=O)c1cnccc1Nc1cccc(Cl)c1` [JDL 390, 3-phenylcarbamylsulfonamido-4-(3'-chloro)-phenylaminopyridine]: 47.2% and 16.9 mL/kg.

As to `O=C(Nc1ccc(Cl)cc1)NS(=O)(=O)c1cnccc1Nc1cccc(Cl)c1` [JDL 391, 3-parachlorophenylcarbamylsulfonamido-4-(3'-chloro)-phenylaminopyridine], the “% inhibition of acute oedema” value with paw of rats turned out to be 74.4%. In addition, the Diuresis in the experiment with rats was 9.6 mL/kg. The matching figures for `CNC(=O)NS(=O)(=O)c1cnccc1Nc1ccccc1Cl` [JDL 402, 3-methylcarbamylsulfonamidio-4-(2'-chloro)-phenylaminopyridine]: 76.8% and 65.4 mL/kg. Turning to `CCNC(=O)NS(=O)(=O)c1cnccc1Nc1ccccc1Cl` [JDL 403, 3-ethylcarbamylsulfonamido-4-(2'-chloro)-phenylaminopyridine], in the experiment on paw of rats, the “% inhibition of acute oedema” value turned out to be 76.8%. The Diuresis in the experiment on rats stood at 74.9 mL/kg. The matching figures for `CCCNC(=O)NS(=O)(=O)c1cnccc1Nc1ccccc1Cl` [JDL 404, 3-propylcarbamylsulfonamido-4-(2'-chloro)-phenylaminopyridine]: 76.8% and 43.1 mL/kg.

For the compound `CC(C)NC(=O)NS(=O)(=O)c1cnccc1Nc1cccc(Cl)c1` [JDL 413, 3-isopropylcarbamylsulfonamido-4-(3'-chloro)-phenylaminopyridine], the “% inhibition of acute oedema” value in the experiment on paw of rats is reported as 76.8%. The Diuresis with rats was found to be 92.5 mL/kg. `CC(C)NC(=O)NS(=O)(=O)c1cnccc1Nc1cc(Cl)cc(Cl)c1` [JDL 474, 3-isopropylcarbamylsulfonamido-4-(3',5'-dichloro)-phenylaminopyridine]: the Diuresis in the experiment on rats came out at 33.3 mL/kg. Still for that read-out and setting: as for `CNC(=O)NS(=O)(=O)c1cnccc1Nc1cccnc1` [JDL 506, 3-methylcarbamylsulfonamido-4-(3'-pyridylamino)-pyridine], the figure is 13.5 mL/kg.
